Source: patent US8530513B1, “Pharmaceutical uses of diterpene excavatolide B from a coral or an analogue thereof” (National Sun Yat-Sen University, priority 2012, dated 2013)

Assays:
[1] = tested on: NF-κB; test: TPA-induced NF-κB phosphorylation in mouse skin, western blot; format: in vivo; details: topical for 2 h after TPA
Experimental: (§1) Shaven abdominal skins of female C57BL/6JNarl mice were not treated or topically treated with vehicle (acetone, 200 μl/site) or TPA (10 nmol in 200 μl acetone/site) at indicated time points or treated first with TPA for 10 min, then with the indicated concentrations of BrD1 at the indicated time points. Abdominal skin samples were collected, homogenated and lysed to prepare total proteins. Protein samples were subsequently resolved by SDS-PAGE using a gradient gel. The resolved proteins were transferred to a PVDF Immobilon-P membrane (Millipore, Bedford, Calif.), and the membrane was blocked with 5% non-fat dry milk in PBST buffer (phosphate-buffered saline (PBS) containing 0.1% Tween 20) for 60 minutes at room temperature. The membranes were incubated overnight at 4° C. with commercially available antibodies (1:1000 dilutions). Loading of equal amounts of protein was assessed using mouse β-actin. The blots were rinsed three times with PBST buffer for 5 minutes. Washed blots were incubated with HRP-conjugated secondary antibody (1:100,000 dilution), then washed again three times with PBST buffer. […] Quantification of bands was performed using Image J software.
(§2) We therefore evaluated whether BrD1 could interfere with TPA-induced activation of Akt and Erk in inflamed skin. […] We thus determined the phosphorylation level of Akt, Erk, NF-κB and IκBα in skins subjected to different treatments. […]

[2] = tested on: MMP-9; test: TPA-induced MMP-9 protein expression in mouse skin, western blot; format: in vivo; details: for TPA-induced MMP-9 protein expression (in words): topical after TPA, 24 h, indicated concentrations
Experimental: Shaven abdominal skins of female C57BL/6JNarl mice were not treated or topically treated with vehicle (acetone, 200 μl/site) or TPA (10 nmol in 200 μl acetone/site) at indicated time points or treated first with TPA for 10 min, then with the indicated concentrations of BrD1 at the indicated time points. Abdominal skin samples were collected, homogenated and lysed to prepare total proteins. Protein samples were subsequently resolved by SDS-PAGE using a gradient gel. The resolved proteins were transferred to a PVDF Immobilon-P membrane (Millipore, Bedford, Calif.), and the membrane was blocked with 5% non-fat dry milk in PBST buffer (phosphate-buffered saline (PBS) containing 0.1% Tween 20) for 60 minutes at room temperature. The membranes were incubated overnight at 4° C. with commercially available antibodies (1:1000 dilutions). Loading of equal amounts of protein was assessed using mouse β-actin. The blots were rinsed three times with PBST buffer for 5 minutes. Washed blots were incubated with HRP-conjugated secondary antibody (1:100,000 dilution), then washed again three times with PBST buffer. The transferred proteins were visualized with an enhanced chemiluminescence (ECL) detection kit (Amersham Pharmacia Biotech, Buckinghamshire, UK). Quantification of bands was performed using Image J software.
Matrix metalloproteinases (MMPs) play a crucial role in many physiological and pathological processes through remodeling extracellular matrix tissues (Stamenkovic I. J Pathol 2003, 200:448-464). Matrix metalloproteinase-9 (MMP-9), a gelatinase which has a key role in inflammatory response, is activated in skin during tissue injury (Shakarjian M P, Bhatt P, Gordon M K, Chang Y C, Casbohm S L, Rudge T L, Kiser R C, Sabourin C L, Casillas R P, Ohman-Strickland P, Riley D J, Gerecke D R. J Appl Toxicol 2006, 26:239-246). In order to evaluate the anti-inflammatory effect of BrD1 on MMP-9 activation in TPA-inflamed skin, BrD1 was topically applied after TPA treatment for 24 h. […] Inhibiton of TPA-inducedMMP-9 expression by BrD1 treatment could also be readily observed at the mRNA level.

[3] = tested on: TNF-α; test: LPS-induced TNF-α expression in mouse bone marrow-derived dendritic cells, ELISA; format: cell-based; details: LPS 100 ng/ml plus BrD1 at different concentrations, 24 h
From the text: For mouse bone marrow-derived DCs (BMDCs), five to six-week-old female C57BL/6JNarl mice were purchased from the National Laboratory Animal Center, Taiwan and kept under SPF conditions. BMDCs were generated from bone marrow cells of C57BL/6 mice as described previously (Yin S Y, Wang W H, Wang B X, Aravindaram K, Hwang P I, Wu H M, Yang N S. BMC genomics 2010, 11:612). In brief, bone marrow was isolated from femurs and tibiae which were then flushed with RPMI-1640 medium using a syringe with a 0.45-mm needle on Day 0. Red blood cells in suspension were lysed for […] with ACK lysing buffer (150 mM NH4Cl, 1.0 mM KHCO3, 0.1 mM EDTA). Bone marrow cells were suspended at a density of 1×10^7 cells/30 ml in RPMI-1640 containing 10% FBS, 2 mM L-glutamine, 1% of nonessential amino acids, 100 U/mL penicillin and 100 μg/mL streptomycin supplemented with 20 ng/mL of mGM-CSF in 15-cm dishes at 37° C. with 5% CO2. On day 2, two-thirds of the medium was removed and 30 mL fresh medium with mGM-CSF was added to the cells. On day 5, culture plates were gently swirled and the floating and loosely adherent cells were discarded. Aliquots of 75% culture media were replenished with 20 ng/mL mGM-CSF and 20 ng/mL mIL-4. […]

[4] = tested on: IL-6; test: LPS-induced IL-6 expression in mouse bone marrow-derived dendritic cells, ELISA; format: cell-based; details: for IL-6 expression in LPS-stimulated dendritic cells: LPS 100 ng/ml plus BrD1 at different concentrations, 24 h
From the text: For mouse bone marrow-derived DCs (BMDCs), five to six-week-old female C57BL/6JNarl mice were purchased from the National Laboratory Animal Center, Taiwan and kept under SPF conditions. BMDCs were generated from bone marrow cells of C57BL/6 mice as described previously (Yin S Y, Wang W H, Wang B X, Aravindaram K, Hwang P I, Wu H M, Yang N S. BMC genomics 2010, 11:612). In brief, bone marrow was isolated from femurs and tibiae which were then flushed with RPMI-1640 medium using a syringe with a 0.45-mm needle on Day 0. Red blood cells in suspension were lysed for […] with ACK lysing buffer (150 mM NH4Cl, 1.0 mM KHCO3, 0.1 mM EDTA). Bone marrow cells were suspended at a density of 1×10^7 cells/30 ml in RPMI-1640 containing 10% FBS, 2 mM L-glutamine, 1% of nonessential amino acids, 100 U/mL penicillin and 100 μg/mL streptomycin supplemented with 20 ng/mL of mGM-CSF in 15-cm dishes at 37° C. with 5% CO2. On day 2, two-thirds of the medium was removed and 30 mL fresh medium with mGM-CSF was added to the cells. On day 5, culture plates were gently swirled and the floating and loosely adherent cells were discarded. Aliquots of 75% culture media were replenished with 20 ng/mL mGM-CSF and 20 ng/mL mIL-4. On day 7, mouse BMDCs (95% pure CD11b and MHC II) were harvested and incubated in RPMI 1640 medium containing 1 mM sodium pyruvate, 0.1 mM nonessential amino acids, 100 U/ml penicillin, 100 μg/ml streptomycin, and supplemented with 10% fetal bovine serum (Invitrogen, Carlsbad, Calif.) for 24 h at 37° C. with or without test chemicals in the presence or absence of LPS (100 ng/ml).
BMDCs were treated with or without test chemicals in the presence or absence of LPS (100 ng/ml) for 24 h at 37° C. Aliquots of supernatants from DC cultures were assayed for IL-6 and TNF-α using commercial ELISA kits (R&D Systems, Minneapolis, Minn.) following the manufacturer's recommendations.
Several studies have reported that the secretion of specific cytokines, including IL-1β, TNF-α and IL-6 by keratinocytes and various immune cells is involved in cutaneous inflammation (Nestle F O, Di Meglio P, Qin J Z, Nickoloff B J. Nature reviews Immunology 2009, 9:679-691; De Vry C G, Valdez M, Lazarov M, Muhr E, Buelow R, Fong T, Iyer S. J Invest Dermatol 2005, 125:473-481; Cumberbatch M, Dearman R J, Kimber I. Immunology 1996, 87:513-518). In order to investigate the anti-inflammatory effect of BrD1 on cytokine expression, mouse bone marrow-derived dendritic cells were used to evaluate the inhibitory effect of BrD1 on LPS-induced expressions of TNF-α and IL-6. In our time-course study for expression of TNF-α and IL-6, after LPS stimulation, a high expression of TNF-α and IL-6 was maintained at 24 h (FIG. 6A). We therefore chose 24 h as the time point at which to assess the expression of TNF-α and IL-6.

[5] = tested on: IκBα; test: TPA-stimulated IκBα phosphorylation in mouse skin, western blot; format: in vivo; details: topical for 2 h after TPA
Experimental: as §1, §2

[6] = tested on: Erk1/2; test: TPA-induced Erk phosphorylation in mouse skin, western blot; format: in vivo; details: topical for 2 h after TPA
Experimental: as §1, §2

Structure (SMILES): CCCC(=O)O[C@H]1C/C(C)=C\[C@@H]2OC(=O)[C@]3(C)O[C@]23[C@@H](OC(C)=O)[C@H]2[C@@H](C)[C@@H](O)C[C@H](OC(C)=O)[C@]2(C)[C@H]1OC(C)=O [BrD1, excavatolide B]
- phosphorylation of NF-κB [1]: effectively inhibited the phoshporylation of NF-κB
- phosphorylation of NF-κB ([1]; listed as excavatolide B): effectively inhibits the phoshporylation of NF-κB
- inhibition of TPA-induced MMP-9 protein expression ([2]; 1 mg/site/mouse topical, 24 h after TPA): ≤ 89%
- TPA-induced MMP-9 protein expression (in words) [2]: significantly inhibited TPA-induced MMP-9 protein expression in a dose-dependent manner
- TPA-induced MMP-9 protein expression (in words) ([2]; listed as excavatolide B): significantly inhibits TPA-induced MMP-9 protein expression in a dose-dependent manner
- TNF-α expression in LPS-stimulated dendritic cells [3]: inhibited TNF-a expression to a much lesser extent
- TNF-α expression in LPS-stimulated dendritic cells ([3]; listed as Excavatolide B): inhibits TNF-α expression to a much lesser extent
- inhibition of LPS-induced IL-6 expression (structure-activity relationship) ([4]; DCs co-treated with LPS and BrDs at 20 μM): significantly inhibited the expression of cytokine IL-6
- IL-6 expression in LPS-stimulated dendritic cells [4]: strongly inhibited IL-6 expression
- IL-6 expression in LPS-stimulated dendritic cells ([4]; listed as Excavatolide B): strongly inhibits IL-6 expression
- TPA-stimulated phosphorylation of IκBα [5]: significantly inhibited the TPA-stimulated phosphorylation of Akt and IκBα
- TPA-stimulated phosphorylation of IκBα ([5]; listed as excavatolide B): significantly inhibits the TPA-stimulated phosphorylation of Akt and IκBα
- TPA-induced Erk phosphorylation [6]: inhibit TPA-induced Erk phosphorylation only slightly
